Reference: patent publication US6706664B1, “Benzoxazole compounds, process for the preparation thereof and herbicides” (UBE Industries, Ltd., priority 1999, dated 2004)

Experiments:
Set-up in all cases: key: 0: normal development; 1: Less damaged; 2: Slightly damaged; 3: Moderately damaged; 4: Severely damaged; 5: All killed
bulrush = experiment: Herbicidal test for paddy field; format: in vivo, Scrips juncoides; conditions: paddy field pot, 500 g/ha dropwise at 1.5 leaf stage of barnyardgrass, 3 weeks, rank vs non-treated
Experimental: (§1) Wagner pots, each having an area of 1/5000 are, were packed with Ube soil (alluvial soil) and planted with seeds or tubers of young rice plant, barnyardgrass, bulrush, flat sedge and monochoria. Then, the pots were filled with water to a depth of 3 cm.
(§2) Each wettable powder of the desired compounds (I) shown in Table 1 prepared in accordance with Example 2 was diluted with water containing a surfactant (0.05%) and subjected to dropwise addition treatment by using pipet so that an effective concentration of the compound (I) in each herbicide became 500 g/ha at 1.5 leaf stage of barnyardgrass.
(§3) These plants were controlled in a glass house at an average temperature of 25° C. for 3 weeks, and then herbicidal effects thereof were investigated.
(§4) The herbicidal effects are evaluated according to the following 6 ranks as compared with non-treated district.
(§5) (0: normal development, 1: Less damaged, 2: Slightly damaged, 3: Moderately damaged, 4: Severely damaged, 5: All killed).

blackgrass = experiment: Soil treatment test for upland field; format: in vivo, Alopecurus aegualis; conditions: 500 g/ha, glass house 25° C., 3 weeks
From the text: as §5
(§6) Wagner pots, each having an area of 1/5000 are, were packed with Ube soil (alluvial soil), and then each seed of corn, soybean, cotton, wheat, solgum, sugar beat, Large crabgrass, barnyardgrass, green foxtail, blackgrass, annual bluegrass, common lambsquartes, livid amaranth and velvetleaf were planted and covered with soil.
(§7) Each wettable powder of the desired compounds (I) shown in Table 1 prepared in accordance with Example 2 was diluted with water containing a surfactant (0.05%) and uniformly sprayed on the surface of each soil so that an effective concentration of the compound (I) in each herbicide became 500 g/ha. These plants were controlled in a glass house at an average temperature of 25° C. for 3 weeks, and then herbicidal effects thereof were investigated.
(§8) The herbicidal effects were evaluated according to the evaluation method described in the above (1).

young rice plant = experiment: Herbicidal test for paddy field; format: in vivo; conditions: paddy field pot, 500 g/ha dropwise at 1.5 leaf stage of barnyardgrass, 3 weeks, rank vs non-treated
Experimental: as §1, §2, §3, §4, §5

green foxtail [1] = experiment: Soil treatment test for upland field; format: in vivo, Setaria viridis; conditions: 500 g/ha, glass house 25° C., 3 weeks
From the text: as §5, §6, §7, §8

monochoria = experiment: Herbicidal test for paddy field; format: in vivo, Monochoria vaginalis; conditions: paddy field pot, 500 g/ha dropwise at 1.5 leaf stage of barnyardgrass, 3 weeks, rank vs non-treated
Experimental: as §1, §2, §3, §4, §5

common lambsquartes [2] = experiment: Soil treatment test for upland field; format: in vivo, Chenopodium album; conditions: 500 g/ha, glass house 25° C., 3 weeks
From the text: as §5, §6, §7, §8

livid amaranth [3] = experiment: Soil treatment test for upland field; format: in vivo, Amaranthus lividus; conditions: 500 g/ha, glass house 25° C., 3 weeks
From the text: as §5, §6, §7, §8

annual bluegrass [4] = experiment: Soil treatment test for upland field; format: in vivo, Poa annua; conditions: 500 g/ha, glass house 25° C., 3 weeks
From the text: as §5, §6, §7, §8

Large crabgrass [5] = experiment: Soil treatment test for upland field; format: in vivo, Digitaria adscendens; conditions: 500 g/ha, glass house 25° C., 3 weeks
From the text: as §5, §6, §7, §8

corn [6] = experiment: Soil treatment test for upland field; format: in vivo; conditions: 500 g/ha, glass house 25° C., 3 weeks
From the text: as §5, §6, §7, §8

cotton = experiment: Soil treatment test for upland field; format: in vivo; conditions: 500 g/ha, glass house 25° C., 3 weeks
From the text: as §5, §6, §7, §8

sugar beat [7] = experiment: Soil treatment test for upland field; format: in vivo; conditions: 500 g/ha, glass house 25° C., 3 weeks
From the text: as §5, §6, §7, §8

soybean = experiment: Soil treatment test for upland field; format: in vivo; conditions: 500 g/ha, glass house 25° C., 3 weeks
From the text: as §5, §6, §7, §8

solgum [8] = experiment: Soil treatment test for upland field; format: in vivo; conditions: 500 g/ha, glass house 25° C., 3 weeks
From the text: as §5, §6, §7, §8

wheat [9] = experiment: Soil treatment test for upland field; format: in vivo; conditions: 500 g/ha, glass house 25° C., 3 weeks
From the text: as §5, §6, §7, §8

barnyardgrass [10] = experiment: Herbicidal test for paddy field; format: in vivo, Echinochloa crusgalli; conditions: paddy field pot, 500 g/ha dropwise at 1.5 leaf stage of barnyardgrass, 3 weeks, rank vs non-treated
Experimental: as §1, §2, §3, §4, §5

barnyardgrass [11] = experiment: Soil treatment test for upland field; format: in vivo, Echinochloa crusgalli; conditions: 500 g/ha, glass house 25° C., 3 weeks
From the text: as §5, §6, §7, §8

velvetleaf [12] = experiment: Soil treatment test for upland field; format: in vivo, Abutilon theophrasti; conditions: 500 g/ha, glass house 25° C., 3 weeks
From the text: as §5, §6, §7, §8

livid amaranth [13] = experiment: Foliar spread test for upland field; format: in vivo, Amaranthus lividus; conditions: foliar spray 500 ppm, 3 weeks, rank vs non-treated
From the text: as §5
(§9) Wagner pots, each having an area of 1/5000 are, were packed with volcanic ash soil and then each seed of corn, soybean, cotton, wheat, solgum, sugar beat, Large crabgrass, barnyardgrass, green foxtail, blackgrass, annual bluegrass, common lambsquartes, livid amaranth, velvetleaf and morning glory was planted, covered with soil and grown in a glass house at an average temperature of […] for about 2 weeks.
(§10) Each wettable powder of the desired compounds (I) shown in Table 1 prepared in accordance with Example 2 was diluted to 500 ppm with water containing a surfactant (0.5%) and then uniformly sprayed on the above respective plants.
(§11) After these plants were controlled in a glass house at an average temperature of 25° C. for 3 weeks, the herbicidal effects thereof were investigated.
as §8

corn [14] = experiment: Foliar spread test for upland field; format: in vivo; conditions: foliar spray 500 ppm, 3 weeks, rank vs non-treated
From the text: as §5, §9, §10, §11, §8

sugar beat [15] = experiment: Foliar spread test for upland field; format: in vivo; conditions: foliar spray 500 ppm, 3 weeks, rank vs non-treated
From the text: as §5, §9, §10, §11, §8

solgum [16] = experiment: Foliar spread test for upland field; format: in vivo; conditions: foliar spray 500 ppm, 3 weeks, rank vs non-treated
From the text: as §5, §9, §10, §11, §8

wheat [17] = experiment: Foliar spread test for upland field; format: in vivo; conditions: foliar spray 500 ppm, 3 weeks, rank vs non-treated
From the text: as §5, §9, §10, §11, §8

morning glory = experiment: Foliar spread test for upland field; format: in vivo, Ipomoea spps.; conditions: foliar spray 500 ppm, 3 weeks, rank vs non-treated
From the text: as §5, §9, §10, §11, §8

common lambsquartes [18] = experiment: Foliar spread test for upland field; format: in vivo, Chenopodium album; conditions: foliar spray 500 ppm, 3 weeks, rank vs non-treated
From the text: as §5, §9, §10, §11, §8

green foxtail [19] = experiment: Foliar spread test for upland field; format: in vivo, Setaria viridis; conditions: foliar spray 500 ppm, 3 weeks, rank vs non-treated
From the text: as §5, §9, §10, §11, §8

velvetleaf [20] = experiment: Foliar spread test for upland field; format: in vivo, Abutilon theophrasti; conditions: foliar spray 500 ppm, 3 weeks, rank vs non-treated
From the text: as §5, §9, §10, §11, §8

Large crabgrass [21] = experiment: Foliar spread test for upland field; format: in vivo, Digitaria adscendens; conditions: foliar spray 500 ppm, 3 weeks, rank vs non-treated
From the text: as §5, §9, §10, §11, §8

annual bluegrass [22] = experiment: Foliar spread test for upland field; format: in vivo, Poa annua; conditions: foliar spray 500 ppm, 3 weeks, rank vs non-treated
From the text: as §5, §9, §10, §11, §8

| Compound | Effect Bulrush (bulrush) | Effects Blackgrass (blackgrass) | Effect Young rice plant (young rice plant) | Effects Green foxtail (green foxtail [1]) | Effect Monochoria (monochoria) | Effects Common lambsquarters (common lambsquartes [2]) | Effects Livid amaranth (livid amaranth [3]) | Effects Annual bluegrass (annual bluegrass [4]) | Effects Large crabgrass (Large crabgrass [5]) | Effects Corn (corn [6]) | Effects Cotton (cotton) | Effects Sugar beat (sugar beat [7]) | Effects Soybean (soybean) | Effects Solgum (solgum [8]) | Effects Wheat (wheat [9]) | Effect Barnyardgrass (barnyardgrass [10]) | Effects Barnyardgrass (barnyardgrass [11]) | Effects Velvetleaf (velvetleaf [12]) | Effects Livid amaranth (livid amaranth [13]) | Effects Corn (corn [14]) | also measured |
| --- | --- | --- | --- | --- | --- | --- | --- | --- | --- | --- | --- | --- | --- | --- | --- | --- | --- | --- | --- | --- | --- |
| CCC(Oc1cccc(C(F)(F)F)c1)c1nc2ccc(Cl)cc2o1 (stereo not shown) [Compound 10] | 3 | 2 | 0 | 4 | 1 | 2 | 4 | 4 | 5 | 0 | 0 | 0 | 0 | 0 | 0 | 4 | 2 |  |  |  |  |
| CCC(Oc1cccc(C(F)(F)F)c1)c1nc2cc(C(F)(F)F)ccc2o1 (stereo not shown) [Compound 198] | 1 | 5 | 1 | 5 | 5 | 4 | 5 | 5 | 5 | 2 | 1 | 5 |  | 2 | 1 | 4 | 4 | 3 |  |  |  |
| CCC(Oc1ccc(F)c(C(F)(F)F)c1)c1nc2cc(C#N)c(C#N)cc2o1 (stereo not shown) [Compound 316] | 3 | 4 | 0 | 5 | 5 | 5 | 5 | 4 | 5 | 0 | 0 | 5 | 0 | 0 | 0 |  |  | 5 | 5 | 2 | Effects Sugar beat (sugar beat [15]): 5; Effects Solgum (solgum [16]): 1; Effects Wheat (wheat [17]): 1; Effects Morning glory (morning glory): 2; Effects Common lambsquarters (common lambsquartes [18]): 3; Effects Green foxtail (green foxtail [19]): 5; Effects Velvetleaf (velvetleaf [20]): 3 |
| CCCC(Oc1cccc(C#N)c1)c1nc2cc(S(C)(=O)=O)c(C)cc2o1 (stereo not shown) [Compound 492] | 3 |  | 0 |  | 5 |  |  |  |  |  |  |  |  |  |  | 2 |  |  | 4 | 1 | Effects Sugar beat (sugar beat [15]): 4; Effects Solgum (solgum [16]): 1; Effects Wheat (wheat [17]): 1; Effects Green foxtail (green foxtail [19]): 2; Effects Velvetleaf (velvetleaf [20]): 3 |
| CCC(Oc1ccc(F)c(C(F)(F)F)c1)c1nc2cc(OC)ccc2o1 (stereo not shown) [Compound 503] |  | 5 |  | 5 |  | 5 | 5 | 5 | 5 | 2 | 1 | 5 | 1 | 2 | 2 |  | 5 | 5 | 5 | 2 | Effects Large crabgrass (Large crabgrass [21]): 3; Effects Annual bluegrass (annual bluegrass [22]): 3; Effects Sugar beat (sugar beat [15]): 4; Effects Solgum (solgum [16]): 2; Effects Wheat (wheat [17]): 2; Effects Common lambsquarters (common lambsquartes [18]): 5; Effects Green foxtail (green foxtail [19]): 5; Effects Velvetleaf (velvetleaf [20]): 3 |
